Measured values from PubChem BioAssay AID844 (SRMLSC, 2007).
Active and inactive are the calls of the source. No rule for the calls is given here.

Tested on: MRP1 cells, doxorubicin viability shift, 10 uM compound
Test: viability protection against doxorubicin, MRP-1 line – cell-based, doxorubicin EC50 shift, dose response (AID 844)
Details: for EC50: measured here: doxorubicin EC50 with compound

| SMILES | fold increase in Dox EC50 | EC50 [µM] |
| --- | --- | --- |
| COc1cc(SC)ccc1C(=O)NCCOc1ccc(Cl)cc1 | 1.36 (inactive) | 7.36 |
| Nc1ccc(CC2SC(=O)NC2=O)cc1 (stereo not drawn) | 1.24 (inactive) | 6.72 |
| Cc1nn(Cc2c(F)c(F)c(F)c(F)c2F)c(C)c1NC(=O)c1ccc(COc2ccc(F)cc2)o1 | 1 (inactive) | 5.42 |
| O=C(NCCC1=CCCCC1)C1CCN(S(=O)(=O)c2cccc3cccnc23)CC1 | 0.43 (inactive) | 2.31 |
| O=C(Nc1ccc(C2CC2(Cl)Cl)cc1)c1ccccc1Br (stereo not drawn) | 1.6 | 8.66 |
| COC(=O)c1ccc(COc2cc(O)c3c(c2)OC(C)(C)CC3=O)cc1 | 1.03 (inactive) | 5.56 |
| O=C1CC(N2CCCN(C3CC(=O)N(c4ccc(F)cc4)C3=O)CC2)C(=O)N1c1ccc(F)cc1 (stereo not drawn) | 1.17 (inactive) | 6.34 |
| C=CCn1c(CNc2ccccc2)nnc1SCC(=O)N/N=C/c1ccccc1O | 0.58 (inactive) | 3.11 |
| O=C1OC(Nc2ccccn2)c2ccccc21 (stereo not drawn) | 0.81 (inactive) | 4.35 |
| Cn1cc(Br)c(C(=O)NNC(=O)c2ccc(Br)cc2)n1 | 0.98 (inactive) | 5.26 |
| N=C(N)SCc1ccccn1 | 0.54 (inactive) | 2.9 |
| C=CCc1c(C)nc(-c2ccccc2)nc1N/N=C(\C)c1ccc(N)cc1 | 1.3 (inactive) | 6.99 |
| C=CCN(C(=O)Nc1ccc(Cl)cc1)C1CC(=O)N(c2ccc(OC)cc2)C1=O (stereo not drawn) | 0.9 (inactive) | 4.85 |
| O=C(COC(=O)C1CC2C=CC1C2)Nc1ccc2c(c1)OC(F)(F)O2 (stereo not drawn) | 1.21 (inactive) | 6.54 |
| Cc1cc2nc(/N=C(\N)NC(=O)N3c4ccccc4Sc4ccccc43)nc(C)c2cc1C | 1.69 | 9.15 |
| COc1cccc(Nc2ncc(C(=O)O)c3ccccc23)c1 | 0.56 (inactive) | 3.01 |
| CCOC(=O)c1sc(-c2ccc(F)cc2)cc1NC(=O)Nc1ccccc1OC | 0.83 (inactive) | 4.5 |
| COc1ccc(Nc2nnc(Cc3ccc(Cl)cc3)c(=O)[nH]2)c(OC)c1 | 0.91 (inactive) | 4.93 |
| Cc1ccc(S(=O)(=O)Nc2nc3ccccc3nc2NCc2ccc3c(c2)OCO3)cc1C | 1.02 (inactive) | 5.49 |
| COc1ccc(-c2cc3nc(C)cc(N4CC(C)CC(C)C4)n3n2)cc1 (stereo not drawn) | 0.64 (inactive) | 3.45 |
| COc1ccc(-c2cc3nc(-c4ccccc4)cc(N4CCC5(CC4)OCCO5)n3n2)cc1 | 0.21 (inactive) | 1.16 |
| CN(C)c1ccc(NC(=O)CN2C(=O)CN=C(c3ccccc3)c3cc(Cl)ccc32)cc1 | 1.29 (inactive) | 6.99 |
| O=C(CCNC(=O)Cn1ccc2ccccc2c1=O)NCCc1ccccc1Cl | 1.14 (inactive) | 6.15 |
| COc1cc(/C=N/NC(=O)C23CC4CC(CC(C4)C2)C3)cc(Br)c1O | 0.66 (inactive) | 3.54 |
| O=C1CC(N2CCC(O)(c3ccc(Br)cc3)CC2)C(=O)N1c1ccc(Cl)cc1 (stereo not drawn) | 1.37 (inactive) | 7.39 |
| Cc1cc(C)n(CCC(=O)N/N=C/c2ccccc2O)n1 | 0.28 (inactive) | 1.54 |
| COc1ccc(N2C(=O)C(CC(=O)Nc3ccc(F)cc3)N(CCc3cccs3)C2=O)cc1 (stereo not drawn) | 0.81 (inactive) | 4.38 |

| SMILES | fold increase in Dox EC50 | EC50 [µM] |
| --- | --- | --- |
| CCCCn1nnc(NC(=S)NC(=O)c2cccs2)n1 | 1.16 (inactive) | 6.26 |
| Cc1cccc(C2CC(c3ccccc3)Nc3ncnn32)c1 (stereo not drawn) | 0.46 (inactive) | 2.46 |
| CCOc1cc(/C=C2\SC(=Nc3ccccc3)N(c3ccccc3)C2=O)ccc1OCC(=O)O | 0.94 (inactive) | 5.09 |
| CCc1nnc(NC(=O)c2ccc(COc3ccc(C)cc3)o2)s1 | 1.33 (inactive) | 7.18 |
| O=c1cc(CNc2ccc(Br)cc2)nc2sccn12 | 0.99 (inactive) | 5.37 |
| Cc1nc(=O)c(-c2ccccc2)c(C)n1-c1ccc(C(=O)O)cc1 | 1.3 (inactive) | 7.02 |
| CCOC(=S)NC(=O)c1sc2ccccc2c1Cl | 1.32 (inactive) | 7.13 |
| O=C(NC1CCCCCC1)c1nnc(Cc2ccc(Cl)cc2)o1 | 0.78 (inactive) | 4.21 |
| O=C(Nc1cccc(Cl)c1)c1c(O)c2c(n(Cc3ccccc3)c1=O)CCCC2 | 1.14 (inactive) | 6.17 |
| CCOC(=O)CN1C(=O)C(C)(C)Oc2ccc(C(=O)Nc3ccccc3OC)cc21 | 0.85 (inactive) | 4.6 |
| CCOC(=O)CN(C(=O)CSc1nnc(COc2ccc(OC)cc2)n1C)c1ccccc1 | 0.6 (inactive) | 3.26 |
| CC(=O)N1CCN=C1SCc1ccc(Cl)cc1 | 1.06 (inactive) | 5.75 |
| Cc1ccc(N2C(=O)Nc3ccc(Br)cc3C2(O)C(=O)NCCCN(C)C)cc1C (stereo not drawn) | 0.69 (inactive) | 3.72 |
| CCSc1nnc(-c2ccc(C)cc2)c2ccccc12 | 0.61 (inactive) | 3.3 |
| C=CCNC(=S)NNC(=O)COc1ccc(Br)cc1 | 0.71 (inactive) | 3.82 |
| CCCC(=O)c1ccc(N2CCOCC2)c(F)c1 | 1.07 (inactive) | 5.75 |
| CC(C)Oc1ccc(-c2nn(-c3ccccc3)cc2/C=c2\sc3ncnn3c2=O)cc1 | 0.82 (inactive) | 4.4 |
| CCNc1sc(C(=O)c2cccs2)c(N)c1-c1nc2ccccc2s1 | 0.59 (inactive) | 3.17 |
| Cc1noc(/C=C/N(C)C)c1S(=O)(=O)N1CCCC(C(=O)NCc2ccco2)C1 (stereo not drawn) | 1.04 (inactive) | 5.6 |
| O=C(O)/C=C\C(=O)NC1CCCCC1 | 0.68 (inactive) | 3.67 |
| O=C1C=C(O)CC(c2ccc(Cl)cc2)C1 (stereo not drawn) | 1.04 (inactive) | 5.6 |
| O=C(Nc1ccn(Cc2c(F)c(F)cc(F)c2F)n1)c1ccc(COc2ccc(Cl)cc2Cl)o1 | 1.01 (inactive) | 5.45 |
| Cn1nnc(NC(=O)COc2ccc(C3CCCCC3)cc2)n1 | 1.49 | 8.05 |
| COC(=O)c1cn(NC(=O)c2cccnc2)c(=O)c2ccccc12 | 0.52 (inactive) | 2.79 |
| Cn1c(=O)n(C/C=C/c2ccccc2)c(=O)c2c1nc1n2CCCN1c1ccc(F)cc1 | 0.76 (inactive) | 4.12 |
| Cc1ccc2nc3c(cc2c1)CC1(C(=O)N(C)C(=O)N(C)C1=O)C1CCCCN31 (stereo not drawn) | 0.59 (inactive) | 3.21 |
| O=C(CSc1ncn[nH]1)N1N=C2/C(=C/c3ccco3)CCCC2C1c1ccco1 (stereo not drawn) | 0.4 (inactive) | 2.17 |
